{"source": "patent US20240358693A1", "about": "“METHODS OF TREATING PAIN” (Aisa Pharma, Inc., priority 2023, published 2024)", "test_system": "participants with Raynaud's Phenomenon secondary mostly to systemic sclerosis (SSc-RP)", "test": "Frequency of weekly symptomatic RP attacks (patient diary), Phase 2a study Part A", "assay_type": "in vivo, human", "method": "A randomized, placebo-controlled phase 2a study was performed and is in progress to assess the safety and efficacy of cilnidipine (10 mg and 20 mg) alone and in combination with 5 mg tadalafil, in participants with diagnosis of scleroderma and/or secondary Raynaud's disease.\nThe relevant metrics measured by this tool daily are: • Study medication • SSc-RP symptoms (Reporting an attack including duration of attack) • Severity of the attack considering all symptoms of the attack e.g., tingling, numbness, pain, color changes (VAS 0-10 cm scale) • Participant's location at the time of the attack (inside home/outside home) • Selecting symptoms experienced during the attack (tingling, numbness, pain, color changes, other) • Pain rating during the attack (11-point Likert scale) • The RCS based on how much difficulty participants had with Raynaud's today, how many attacks the participant had, and how long they lasted. Participants will also be asked to consider how much pain, numbness, or other symptoms the Raynaud's caused in fingers (including painful sores), and how much the Raynaud's alone affected the use of hands today (VAS 0-10 cm scale).\nPercent change from baseline evaluation for frequency of weekly RP attacks were or will be used as the primary efficacy variable. The sponsor-developed participant-informed diary will be used to record data. Frequency of weekly RP attacks is defined as the total number of RP attacks divided by the number of days with available diary data within the last 7 days of each dosing period then multiplied by 7. Total number of RP attacks during the last 7 days of screening period divided by the number of days with available data then multiplied by 7 will be used as baseline for the analysis of all periods. The variable will be calculated as follows:\nPercentage change={(weekly RP attacks for the last 7 days of each dosing period−Baseline weekly RP attacks)/Baseline weekly RP attacks}*100%.\nAbsolute change=weekly RP attacks for the last 7 days of each dosing period−Baseline weekly RP attacks\nPercent change from baseline evaluation for frequency of weekly RP attacks was and will be the primary efficacy endpoint. Frequency of weekly RP attacks is defined as the total number of RP attacks divided by the number of days with available diary data within the last 7 days of each dosing period then multiplied by 7. Total number of RP attacks during the last 7 days of screening period divided by the number of days with available data then multiplied by 7 will be used as baseline for the analysis of all periods.\nThe following data was actually obtained in accordance with the protocol and plan delineated in Examples 1 and 2. The accompanying data involved 11 patients out of the planned 76 patient study. The study was done in patients with scleroderma (systemic sclerosis) who had relatively frequent Raynaud symptoms as they needed to average at least one attack per day during a screening period of up to two weeks. In this first phase of this double-blind placebo-controlled, prospective randomized study, patients were treated in parallel and after meeting study criteria were randomized to receive either placebo, cilnidipine 10 mg daily, cilnidipine 20 mg daily, tadalafil 5 mg daily, cilnidipine 10 mg plus 5 mg of tadalafil, or cilnidipine 20 mg plus 5 mg of tadalafil.", "key": {"[1]": {"conditions": "Tadalafil 5 mg (N = 2), ITT Part A"}, "[2]": {"conditions": "Tadalafil 5 mg, n 1, Excluding Outliers, ITT Part A"}, "[3]": {"conditions": "Tadalafil 5 mg, n 2, by Baseline RCS, 2nd block (RCS >5.0), ITT Part A"}, "[4]": {"conditions": "excluding outliers, by baseline RCS, second subgroup, cilnidipine 10 mg, tadalafil 5 mg daily"}}}
{"smiles": "CN1CC(=O)N2[C@H](c3ccc4c(c3)OCO4)c3[nH]c4ccccc4c3C[C@@H]2C1=O", "note": "[Tadalafil, tadalafil]", "values": [{"measurement": "Weekly Symptomatic RP Attacks Change from Baseline, Mean", "setting": "[1]", "value": 4.50}, {"measurement": "Weekly Symptomatic RP Attacks Change from Baseline, Median", "setting": "[1]", "value": 4.50}, {"measurement": "Weekly Symptomatic RP Attacks Percent Change from Baseline, Mean", "setting": "[1]", "value": 62.50, "unit": "%"}, {"measurement": "Weekly Symptomatic RP Attacks Percent Change from Baseline, Median", "setting": "[1]", "value": 62.50, "unit": "%"}, {"measurement": "Weekly Symptomatic RP Attacks, Mean", "setting": "[1]", "value": 12.50}, {"measurement": "Weekly Symptomatic RP Attacks, Median", "setting": "[1]", "value": 12.50}, {"measurement": "Weekly Symptomatic RP Attacks Change from Baseline, Mean (SD)", "setting": "[2]", "value": 6.00}, {"measurement": "Weekly Symptomatic RP Attacks Change from Baseline, Median", "setting": "[2]", "value": 6.00}, {"measurement": "Weekly Symptomatic RP Attacks Percent Change from Baseline, Mean (SD)", "setting": "[2]", "value": 50.00, "unit": "%"}, {"measurement": "Weekly Symptomatic RP Attacks Percent Change from Baseline, Median", "setting": "[2]", "value": 50.00, "unit": "%"}, {"measurement": "Weekly Symptomatic RP Attacks, Mean (SD)", "setting": "[2]", "value": 18.00}, {"measurement": "Weekly Symptomatic RP Attacks, Median", "setting": "[2]", "value": 18.00}, {"measurement": "Weekly Symptomatic RP Attacks Change from Baseline, Mean (SD)", "setting": "[3]", "value": "4.50 (2.121)"}, {"measurement": "Weekly Symptomatic RP Attacks Change from Baseline, Median", "setting": "[3]", "value": 4.50}, {"measurement": "Weekly Symptomatic RP Attacks Percent Change from Baseline, Mean (SD)", "setting": "[3]", "value": "62.50 (17.678) %"}, {"measurement": "Weekly Symptomatic RP Attacks Percent Change from Baseline, Median", "setting": "[3]", "value": 62.50, "unit": "%"}, {"measurement": "Weekly Symptomatic RP Attacks, Mean (SD)", "setting": "[3]", "value": "12.50 (7.778)"}, {"measurement": "Weekly Symptomatic RP Attacks, Median", "setting": "[3]", "value": 12.50}, {"measurement": "Weekly Symptomatic RP Attacks Change from Baseline, Max", "setting": "[4]", "value": "6.0, 6.0"}, {"measurement": "Weekly Symptomatic RP Attacks Change from Baseline, Mean (SD)", "setting": "[4]", "value": 6.00}, {"measurement": "Weekly Symptomatic RP Attacks Change from Baseline, Median", "setting": "[4]", "value": 6.00}, {"measurement": "Weekly Symptomatic RP Attacks Change from Baseline, Min", "setting": "[4]", "value": "6.0, 6.0"}, {"measurement": "Weekly Symptomatic RP Attacks Change from Baseline, Q1", "setting": "[4]", "value": "6.00, 6.00"}, {"measurement": "Weekly Symptomatic RP Attacks Change from Baseline, Q3", "setting": "[4]", "value": "6.00, 6.00"}, {"measurement": "Weekly Symptomatic RP Attacks Percent Change from Baseline, Max", "setting": "[4]", "value": "50.0, 50.0%"}, {"measurement": "Weekly Symptomatic RP Attacks Percent Change from Baseline, Mean (SD)", "setting": "[4]", "value": 50.00, "unit": "%"}, {"measurement": "Weekly Symptomatic RP Attacks Percent Change from Baseline, Median", "setting": "[4]", "value": 50.00, "unit": "%"}, {"measurement": "Weekly Symptomatic RP Attacks Percent Change from Baseline, Min", "setting": "[4]", "value": "50.0, 50.0%"}, {"measurement": "Weekly Symptomatic RP Attacks Percent Change from Baseline, Q1", "setting": "[4]", "value": "50.00, 50.00%"}, {"measurement": "Weekly Symptomatic RP Attacks Percent Change from Baseline, Q3", "setting": "[4]", "value": "50.00, 50.00%"}, {"measurement": "Weekly Symptomatic RP Attacks, Max", "setting": "[4]", "value": "18.0, 18.0"}, {"measurement": "Weekly Symptomatic RP Attacks, Mean (SD)", "setting": "[4]", "value": 18.00}, {"measurement": "Weekly Symptomatic RP Attacks, Median", "setting": "[4]", "value": 18.00}, {"measurement": "Weekly Symptomatic RP Attacks, Min", "setting": "[4]", "value": "18.0, 18.0"}, {"measurement": "Weekly Symptomatic RP Attacks, Q1", "setting": "[4]", "value": "18.00, 18.00"}, {"measurement": "Weekly Symptomatic RP Attacks, Q3", "setting": "[4]", "value": "18.00, 18.00"}]}
